This is an account of results in ChEMBL document CHEMBL1125939, “Inhibition of steroid 5-reductase by 3-nitrosteroids: synthesis, mechanism of inhibition, and in vivo activity” (Bioorg Med Chem Lett, 1991).

Assay [1] can be described thus: Compound was tested for in vitro inhibitory activity against cynomolgus monkey Steroid 5-alpha-reductase. Details: species or system Cercopithecidae; call rule not given here.
For assay [2], the target named is T1, 3-oxo-5-alpha-steroid 4-dehydrogenase 2 (Homo sapiens, UniProt P31213).
T1 sequence (P31213 whole entry): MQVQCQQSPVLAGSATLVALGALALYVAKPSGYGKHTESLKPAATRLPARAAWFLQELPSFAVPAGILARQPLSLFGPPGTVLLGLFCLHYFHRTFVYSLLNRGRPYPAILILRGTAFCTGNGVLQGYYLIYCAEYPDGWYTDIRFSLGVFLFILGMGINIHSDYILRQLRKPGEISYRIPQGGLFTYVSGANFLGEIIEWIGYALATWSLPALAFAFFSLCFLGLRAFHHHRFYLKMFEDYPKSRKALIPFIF
Put plainly: Compound was tested for inhibitory activity against human prostatic Steroid 5-alpha-reductase. The settings on record: read-out: Ki app.

The target of assay [3] is T1, 3-oxo-5-alpha-steroid 4-dehydrogenase 2. Put plainly: Compound was tested for inhibitory activity against human prostatic Steroid 5-alpha-reductase at 5 uM concentration; NS - No significant inhibition.

For `CC(C)N(C(=O)[C@H]1CCC2C3CC[C@H]4C=C([N+](=O)[O-])CC[C@]4(C)C3CC[C@@]21C)C(C)C` (stereo partly specified), the results for the Ki in assay [1] and in assay [2] were less than 1 nM and 50 nM, respectively.
Consider `CC(C)N(C(=O)[C@H]1CCC2C3CC=C4C=C([N+](=O)[O-])CC[C@]4(C)C3CC[C@@]21C)C(C)C` (stereo partly specified), for which the Ki in assay [2] was 590 nM.
On to `CC(C)N(C(=O)[C@H]1CC[C@H]2[C@@H]3CCc4cc([N+](=O)[O-])ccc4[C@H]3CC[C@]12C)C(C)C`, for which, in assay [3], the Ki app result is recorded as “Not Active”.
As for `CC(C)N(C(=O)[C@H]1CCC2C3CC=C4C=C(C(=O)O)CC[C@]4(C)C3CC[C@@]21C)C(C)C` (stereo partly specified), in assay [1], the Ki turned out to be 4 nM.
Regarding `CC(C)N(C(=O)[C@H]1CC[C@H]2[C@@H]3CCc4cc(C(=O)O)ccc4[C@H]3CC[C@]12C)C(C)C`, the Ki in assay [2] was 20 nM.
